Broadly, the LD50 is the dose expected to kill half of the subjects tested. The low end stands for a more toxic substance, the high end for a less toxic substance.

Consider five compounds from patent US8519006B2, “Use of sphingosine-1 phosphate (S1P) receptor agonists for the treatment of brain degenerative diseases” (Novartis AG, priority 2003, dated 2013).

Data set [1] relates to subjects exhibiting mild to moderate Alzheimer dementia. As to the kind of experiment: Clinical trial, EEG and psychometric tests. The data set is classed as in vivo, human. The conditions noted are these: ca. 0.25 to ca. 10 mg/p.o. once or divided 2 or 3×; tests at 60, 120 and 180 minutes.
Data set [2] deals with human monocytes. As to the kind of experiment: Monocyte chemotaxis toward Aβ (48-blindwell microchemotaxis chamber). The data set is classed as cell-based.
The nature of data set [3]: Acute toxicity (LD50). To be noted: rat, in vivo, po.
Data set [4] is described as follows: Acute toxicity (LD50). The conditions noted are these: monkey, in vivo, po.
The subject of data set [5] is human monocytes. As to the kind of experiment: Monocyte chemotaxis toward Aβ precursor protein (Aβ-PP). The data set is classed as cell-based.
[6] abbreviates: monocytes pre-incubated with enzyme blocker, washed, chemotaxis toward Aβ-PP (1 pmol/l), GFX 500 nmol/l, IBMX 10 ng/ml, Tyrphostin-23 10 ng/ml, WTN 10 nmol/l, CTX 1 nmol/l, PTX 1 nmol/l, Medium 1.639 (0.076).
The mark [7] stands for this setting: monocytes pre-incubated with enzyme blocker, washed, chemotaxis toward Aβ (1 pmol/l), GFX 500 nmol/l, IBMX 10 ng/ml, Tyrphostin-23 10 ng/ml, WTN 10 nmol/l, CTX 1 nmol/l, PTX 1 nmol/l, Medium 1.786 (0.078).

Read-outs that look alike come from different tables or passages of the source.

Turning to `CCCCCCCCc1ccc(CCC(N)(CO)CO)cc1.Cl` [Compound A, 2-amino-2-[2-(4-octylphenyl)ethyl]propane-1,3-diol], the “condition as evidenced by EEG results and psychometric tests compared with placebo” value in data set [1] is on record as “improved condition”. For the same compound, the “Chemotaxis Mean (+/−SEM)” value in the data set on human monocytes [2] (chemotaxis index, monocytes incubated 20 min with 2 ng/ml, washed, chemotaxis toward Aβ [1 pmol/L], Medium 1.825 (0.14)) is given as 1.077 (0.18). The median lethal dose (LD50) in “Acute toxicity (LD50) [3]” and in “Acute toxicity (LD50) [4]” was greater than 10 mg/kg in each case.
As for `CN(C)CCCn1cc(C2=C(c3c[nH]c4ccccc34)C(=O)NC2=O)c2ccccc21` [GFX], in the data set on human monocytes [5] (setting [6]), the “Chemotaxis Index Aβ-PP Mean (+/−SEM)” value is recorded as 1.098 (0.10). For the same compound, the “Chemotaxis Index Aβ Mean (+/−SEM)” value in the data set on human monocytes [2] (setting [7]) was 1.143 (0.08).
For `COC[C@H]1OC(=O)c2coc3c2[C@@]1(C)C1=C(C3=O)[C@@H]2CCC(=O)[C@@]2(C)C[C@H]1OC(C)=O` [WTN], in that order: 1.115 (0.08) and 1.023 (0.05).
Take `N#CC(C#N)=Cc1ccc(O)c(O)c1` [Tyrphostin-23]: the “Chemotaxis Index Aβ-PP Mean (+/−SEM)” value in the data set with human monocytes [5] is reported as 1.398 (0.07). Also, in the data set on human monocytes [2], the “Chemotaxis Index Aβ Mean (+/−SEM)” value is reported as 1.435 (0.04).
With `CC(C)Cn1c(=O)n(C)c(=O)c2[nH]cnc21` [IBMX], in the data set on human monocytes [5] (setting [6]), the “Chemotaxis Index Aβ-PP Mean (+/−SEM)” value was 1.208 (0.09). Moreover, the “Chemotaxis Index Aβ Mean (+/−SEM)” value with human monocytes [2] (setting [7]) is 1.234 (0.06).
